# Results taken from US20240109877A1, “PYRIMIDINES FOR DEGRADING BRUTON'S TYROSINE KINASE” (AbbVie Inc., priority 2022, published 2024).
# System: TCL1-driven CLL bearing BTK^C481S mutation
# Test: TCL1-driven CLL bearing BTK C481S mutation in C57BL/6 mice, circulating leukemia burden
# Assay type: in vivo, mouse
# Details: once daily (QD) for 19 days
# Text: EIA-TCL1 CLL transgenic mice (Crogen Pharmaceuticals LLC) were crossed with BTK^C481S knock-in mice (AbbVie) to generate Eμ-TCL1 transgenic mice carrying the BTK^C481S mutation. The leukemic splenocytes from these BTK^C481S Eμ-TCL1 transgenic mice (Passage 1) were transplanted intravenously into C57BL/6 mice, leading to CLL development in the peripheral blood and spleen. When circulating CLL burden (CD5+CD19+ cells as described below) in the recipient mice reached over 90%, their splenocytes (Passage 2) containing high CLL burden were cryopreserved and used for CLL efficacy studies. […]
# To determine the absolute/total leukocyte numbers, complete blood counts were determined for each mouse using the Genesis™ veterinary hematology analyzer (Oxford Science Inc.).
# Cells isolated from murine peripheral blood mononuclear cells (PMBCs) were collected to determine antigen expression. […] Cells were gated on CD45+, and thereafter the percentage of cells that were CD5+CD19+ from that subset was calculated. […]
# Whole blood was collected weekly post tumor implantation via submandibular cheek bleeding. Circulating leukemic burden was calculated by multiplying absolute/total leukocyte count with the percentage of the leukocytes have the immunophenotype CD19^+CD5^+. […]
structure (smiles),measurement,setting,value
"Cc1cc(-c2cc(Nc3ccc(N4CCN(CCc5ccc(N6CCC(=O)NC6=O)cc5)C[C@@H]4C)cn3)ncn2)ccc1[C@@H](C)NC(=O)c1nc(C(C)(C)C)no1 [Example 1, 3-tert-butyl-N-[(1R)-1-{4-[6-({5-[(2S)-4-{2-[4-(2,4-dioxo-1,3-diazinan-1-yl)phenyl]ethyl}-2-methylpiperazin-1-yl]pyridin-2-yl}amino)pyrimidin-4-yl]-2-methylphenyl}ethyl]-1,2,4-oxadiazole-5-carboxamide]",circulating leukemia burden (CD19+CD5+ CLL cells per μL),"Dosage 1-4, dose-dependent manner, FIG. 1",controlled circulating leukemia burden
same,CLL burden control (no increase from the initial tumor burden),at Dosage 3 and Dosage 4,Complete CLL burden control
